# Measurements taken from US12358847B2, “Liquid formulations of urease inhibitors for fertilizers” (Soilgenic Technologies, LLC, priority 2012, dated 2025).
# Tests used:
# [1] = Maximum Allowable Dosage Level per day (California Proposition 65); cited from earlier work
# [2] = Dynamic viscosity of protic solvents with DMSO vs. NMP co-solvent (Brookfield viscometer); type: physicochemical; settings: 21° C.; in propylene glycol, glycerin, MIPA
# From the text: Dynamic viscosity measurements were collected for propylene glycol, glycerin, and a representative alkanolamine (monoisopropanolamine, MIPA) with increasing levels of DMSO and NMP. A Brookfield LVDV-E digital rotational viscometer with LVDV-E spindle set (Brookfield Engineering Labs, Inc., Middleboro, Mass.) was employed for this work and was calibrated using Cannon […] general purpose, synthetic base oil viscosity calibration standard solution (Cannon Instrument Company, State College, PA). The sampling was conducted at 21° C.
# [3] = in vivo; cited from earlier work
# [4] = in vivo; cited from earlier work; remark: listed apart in the source
# [5] = Accelerated chemical stability of NBPT solutions at 50 °C, HPLC; settings: 45 days at 50±1° C.
# [6] = 25° C.; cited from earlier work
smiles,measurement,setting,value
"C[S+](C)[O-] [Dimethyl sulfoxide, dimethyl sulfoxide]",Inhalation toxicity (MADL),[1],None established
same,"reducing the viscosity of viscous formulations, DMSO vs. NMP",[2],virtually no difference
same,Oral LD-50,[3],"14,500-28,300"
same,Dermal LD-50,[4],"40,000"
"CN1CCCC1=O [N-methyl pyrrolidone, reference compound]",Inhalation toxicity (MADL),[1],3200 µg/day
same,Oral LD-50,[3],"3,914"
same,Dermal LD-50,[4],"8,000"
"CCCCNP(N)(N)=S [NBPT, N-(n-butyl) thiophosphoric triamide]",NBPT deterioration at elevated temperature,"[5]; solution of example 4: 50% PG, 25% DMSO, 25% NBPT",did not have significant deterioration
same,NBPT deterioration at elevated temperature,"[5]; solution of example 6: 35% PG, 40% DMSO, 25% NBPT",did not have significant deterioration
same,NBPT deterioration at elevated temperature,"[5]; solution of example 8: 20% PG, 40% DMSO, 40% NBPT",did not have significant deterioration
same,NBPT deterioration at elevated temperature,"[5]; solution of example 10: 48.5% glycerine, 1.5% methanol, 25% DMSO, 25% NBPT",did not have significant deterioration
same,NBPT deterioration at elevated temperature,"[5]; solution of example 12: 33.5% glycerine, 1.5% methanol, 25% DMSO, 40% NBPT",did not have significant deterioration
CC(O)CO (stereo not shown) [propylene glycol],dynamic viscosity,[6],48.8 centipoise
